# Measured values taken from US20170232083A1, “METHODS OF DIAGNOSIS AND TREATMENT OF CELIAC DISEASE IN CHILDREN” (priority 2014, published 2017).
# Tested on: PBMC (polyclonal gluten-specific T cells) of paediatric and adult CD patients
# Assay: IFN-γ ELISpot of PBMC after 3 day oral wheat challenge (SFU, % of maximal peptide response, dominance scores, EC50; Examples 5-6)
# Assay type: cell-based, human
# Details: for IFN-γ ELISpot response: after oral wheat challenge; for Cross-reactive T cell response: following wheat challenge
# [1] = subject I (3-5yrs/6-10yrs part)
# [2] = subject J (3-5yrs/6-10yrs part)
# [3] = subject K (3-5yrs/6-10yrs part)
# [4] = subject V (3-5yrs/6-10yrs part)
# [5] = subject W (3-5yrs/6-10yrs part)
# [6] = subject Y (3-5yrs/6-10yrs part)
# [7] = subject five (3-5yrs/6-10yrs part)
# [8] = subject seven (3-5yrs/6-10yrs part)
# [9] = subject six (3-5yrs/6-10yrs part)
# [10] = subject ten (3-5yrs/6-10yrs part)
# [11] = subject two (3-5yrs/6-10yrs part)
sequence,measurement,setting,value
QPFPQPEQPFPWQP,IFN-γ ELISpot response,"patient A, 11-17 yrs, cut-off 10 SFU",3.5 SFU
same,Significant response as percentage of maximal peptide SFU,"patient D, max peptide 30.5 SFU",+ (>70% = +)
same,IFN-γ ELISpot response,"patient E, H, 11-17 yrs, cut-off 10 SFU",44 SFU
same,Significant response as percentage of maximal peptide SFU,"patient E, max peptide 224 SFU",′ (11-20% = ′)
same,IFN-γ ELISpot response,"patient F, 11-17 yrs, cut-off 10 SFU",84.5 SFU
same,Significant response as percentage of maximal peptide SFU,"patient F, max peptide 178 SFU",′′′ (41-70% = ′′′)
same,IFN-γ ELISpot response,"patient G, 11-17 yrs, cut-off 10 SFU",8 SFU
same,IFN-γ ELISpot response,"patient H (HLA-DQ2.5 homozygote), 3-5yrs, cut-off 10 SFU",27.5 SFU
same,IFN-γ ELISpot response,"patient H, 11-17 yrs, cut-off 10 SFU",8.5 SFU
same,IFN-γ ELISpot response,"patient ID not given, 11-17 yrs, cut-off 10 SFU",67.5 SFU
same,Significant response as percentage of maximal peptide SFU,"patient ID not given, max peptide 95 SFU",+ (>70% = +)
same,Significant response as percentage of maximal peptide SFU,"patient II, max peptide 15 SFU",+ (>70% = +)
same,Significant response as percentage of maximal peptide SFU,"patient J, max peptide 196 SFU",′′′ (41-70% = ′′′)
same,Significant response as percentage of maximal peptide SFU,"patient K, max peptide 53 SFU",′′ (21-40% = ′′)
same,Significant response as percentage of maximal peptide SFU,"patient M, max peptide 48 SFU",′′′ (41-70% = ′′′)
same,IFN-γ ELISpot response,"patient N, 3-5yrs, cut-off 10 SFU",7 SFU
same,IFN-γ ELISpot response,"patient P, 11-17 yrs, cut-off 21.6 SFU",20 SFU
same,IFN-γ ELISpot response,"patient Q, 11-17 yrs, cut-off 10 SFU",63 SFU
same,IFN-γ ELISpot response,"patient U, H, 11-17 yrs, cut-off 10 SFU",17 SFU
same,Significant response as percentage of maximal peptide SFU,"patient U, max peptide 81 SFU",′′ (21-40% = ′′)
same,IFN-γ ELISpot response,"patient V, 6-10 yrs, cut-off 10 SFU",25 SFU
same,Significant response as percentage of maximal peptide SFU,"patient V, max peptide 35 SFU",+ (>70% = +)
same,IFN-γ ELISpot response,"patient Y, 6-10 yrs, cut-off 10 SFU",10 SFU
same,Significant response as percentage of maximal peptide SFU,"patient Y, max peptide 16 SFU",′′′ (41-70% = ′′′)
same,Significant response as percentage of maximal peptide SFU,"patient Z, max peptide 13 SFU",+ (>70% = +)
same,IFN-γ ELISpot response,"patient eleven, 6-10 yrs, cut-off 10 SFU",20.5 SFU
same,Significant response as percentage of maximal peptide SFU,"patient eleven, max peptide 57 SFU",′′ (21-40% = ′′)
same,Significant response as percentage of maximal peptide SFU,"patient five, max peptide 48 SFU",+ (>70% = +)
same,IFN-γ ELISpot response,"patient four, 3-5yrs, cut-off 10 SFU",28.5 SFU
same,Significant response as percentage of maximal peptide SFU,"patient four, max peptide 44 SFU",′′′ (41-70% = ′′′)
same,IFN-γ ELISpot response,"patient seven, 6-10 yrs, cut-off 10.5 SFU",11 SFU
same,Significant response as percentage of maximal peptide SFU,"patient seven, max peptide 27 SFU",′′′ (41-70% = ′′′)
same,IFN-γ ELISpot response,"patient six, 3-5yrs, cut-off 10 SFU",10 SFU
same,Significant response as percentage of maximal peptide SFU,"patient six, max peptide 13 SFU",+ (>70% = +)
same,IFN-γ ELISpot response,"patient ten, 3-5yrs, cut-off 10 SFU",14.5 SFU
same,Significant response as percentage of maximal peptide SFU,"patient ten, max peptide 14.5 SFU",+ (>70% = +)
same,IFN-γ ELISpot response,"patient three, 6-10 yrs, cut-off 10.5 SFU",95 SFU
same,IFN-γ ELISpot response,"patient twelve, 11-17 yrs, cut-off 10 SFU",30.5 SFU
same,IFN-γ ELISpot response,"patient two, 3-5yrs, cut-off 10 SFU",52.5 SFU
same,Significant response as percentage of maximal peptide SFU,"patient two, max peptide 60 SFU",+ (>70% = +)
same,Cross-reactive T cell response,"subject A, 11-17yrs",15 SFU
same,Significant response as a percentage of maximal peptide SFU,"subject D, 11-17yrs",+ (>70% = +)
same,Cross-reactive T cell response,"subject D, 11-17yrs",30.5 SFU
same,Significant response as a percentage of maximal peptide SFU,"subject E, 11-17yrs",′ (11-20% = ′)
same,Cross-reactive T cell response,"subject E, 11-17yrs",44 SFU
same,Significant response as a percentage of maximal peptide SFU,"subject F, 11-17yrs",′′′ (41-70% = ′′′)
same,Cross-reactive T cell response,"subject F, 11-17yrs",845 SFU
same,Cross-reactive T cell response,"subject G, 11-17yrs",8 SFU
same,Cross-reactive T cell response,subject H,8.5 SFU
same,Cross-reactive T cell response,[1],5.5 SFU
same,Cross-reactive T cell response,[2],95- SFU
same,Significant response as a percentage of maximal peptide SFU,subject K,′′ (21-40% = ′′)
same,Cross-reactive T cell response,[3],18.5 SFU
same,Cross-reactive T cell response,"subject P, 11-17yrs",20 SFU
same,Significant response as a percentage of maximal peptide SFU,"subject Q, 11-17yrs",′′′ (41-70% = ′′′)
same,Cross-reactive T cell response,"subject Q, 11-17yrs",63 SFU
same,Cross-reactive T cell response,"subject T, 11-17yrs",67.5 SFU
same,Significant response as a percentage of maximal peptide SFU,"subject U, 11-17yrs",′′ (21-40% = ′′)
same,Cross-reactive T cell response,"subject U, 11-17yrs",17 SFU
same,Significant response as a percentage of maximal peptide SFU,subject V,+ (>70% = +)
same,Cross-reactive T cell response,[4],25 SFU
same,Cross-reactive T cell response,[5],9 SFU
same,Cross-reactive T cell response,[6],10- SFU
same,Significant response as a percentage of maximal peptide SFU,subject five,+ (>70% = +)
same,Cross-reactive T cell response,[7],40.5 SFU
same,Cross-reactive T cell response,"subject nine, 11-17yrs",15 SFU
same,Significant response as a percentage of maximal peptide SFU,subject seven,′′ (21-40% = ′′)
same,Cross-reactive T cell response,[8],11 SFU
same,Significant response as a percentage of maximal peptide SFU,subject six,+ (>70% = +)
same,Cross-reactive T cell response,[9],10 SFU
same,Significant response as a percentage of maximal peptide SFU,subject ten,+ (>70% = +)
same,Cross-reactive T cell response,[10],14.5 SFU
same,Significant response as a percentage of maximal peptide SFU,subject two,+ (>70% = +)
same,Cross-reactive T cell response,[11],52.5 SFU
QPFPQPEQPFRQQ,Cross-reactive T cell response,"subject A, 11-17yrs",1 SFU
same,Significant response as a percentage of maximal peptide SFU,"subject D, 11-17yrs",′′′ (41-70% = ′′′)
same,Cross-reactive T cell response,"subject D, 11-17yrs",15 SFU
same,Significant response as a percentage of maximal peptide SFU,"subject E, 11-17yrs",′ (11-20% = ′)
same,Cross-reactive T cell response,"subject E, 11-17yrs",37 SFU
same,Significant response as a percentage of maximal peptide SFU,"subject F, 11-17yrs",′ (11-20% = ′)
same,Cross-reactive T cell response,"subject F, 11-17yrs",21 SFU
same,Cross-reactive T cell response,"subject G, 11-17yrs",3 SFU
same,Cross-reactive T cell response,subject H,0 SFU
same,Cross-reactive T cell response,[1],4 SFU
same,Significant response as a percentage of maximal peptide SFU,subject J,(6-10% - ^)
same,Cross-reactive T cell response,[2],15 SFU
same,Significant response as a percentage of maximal peptide SFU,subject K,′′ (21-40% = ′′)
same,Cross-reactive T cell response,[3],21 SFU
same,Cross-reactive T cell response,"subject P, 11-17yrs",16 SFU
same,Significant response as a percentage of maximal peptide SFU,"subject Q, 11-17yrs",′′′ (41-70% = ′′′)
same,Cross-reactive T cell response,"subject Q, 11-17yrs",44 SFU
same,Significant response as a percentage of maximal peptide SFU,"subject T, 11-17yrs",′′′ (41-70% = ′′′)
same,Cross-reactive T cell response,"subject T, 11-17yrs",58 SFU
same,Significant response as a percentage of maximal peptide SFU,"subject U, 11-17yrs",′′ (21-40% = ′′)
same,Cross-reactive T cell response,"subject U, 11-17yrs",21 SFU
same,Significant response as a percentage of maximal peptide SFU,subject V,′′′ (41-70% = ′′′)
same,Cross-reactive T cell response,[4],20 SFU
same,Cross-reactive T cell response,[5],8 SFU
same,Cross-reactive T cell response,[6],8 SFU
same,Significant response as a percentage of maximal peptide SFU,subject five,+ (>70% = +)
same,Cross-reactive T cell response,[7],37 SFU
same,Cross-reactive T cell response,"subject nine, 11-17yrs",0 SFU
same,Cross-reactive T cell response,[8],6 SFU
same,Cross-reactive T cell response,[9],5 SFU
same,Cross-reactive T cell response,[10],6 SFU
same,Significant response as a percentage of maximal peptide SFU,subject two,′′ (21-40% = ′′)
same,Cross-reactive T cell response,[11],24 SFU
